From BindingDB's records for patent US20250313563 (The Broad Institute, 2025)
Where “and” joins values, the source holds several entries; their conditions need not be identical. Identical values can stand only once.

Legend:
[1] = molecular target: Glycogen synthase kinase-3 beta (Homo sapiens, UniProt P49841); test: TR-FRET Assay
In short: (§1)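 Kinase activity, measured after a 30-minute compound preincubation, was stopped with EDTA and quantified by TR-FRET using a Tb-labelled pSer641 antibody paired with streptavidin-d2.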

[2] = molecular target: Glycogen synthase kinase-3 alpha (Homo sapiens, UniProt P49840); test: TR-FRET Assay
In short: as §1

Sequence of Glycogen synthase kinase-3 alpha (P49840 whole entry): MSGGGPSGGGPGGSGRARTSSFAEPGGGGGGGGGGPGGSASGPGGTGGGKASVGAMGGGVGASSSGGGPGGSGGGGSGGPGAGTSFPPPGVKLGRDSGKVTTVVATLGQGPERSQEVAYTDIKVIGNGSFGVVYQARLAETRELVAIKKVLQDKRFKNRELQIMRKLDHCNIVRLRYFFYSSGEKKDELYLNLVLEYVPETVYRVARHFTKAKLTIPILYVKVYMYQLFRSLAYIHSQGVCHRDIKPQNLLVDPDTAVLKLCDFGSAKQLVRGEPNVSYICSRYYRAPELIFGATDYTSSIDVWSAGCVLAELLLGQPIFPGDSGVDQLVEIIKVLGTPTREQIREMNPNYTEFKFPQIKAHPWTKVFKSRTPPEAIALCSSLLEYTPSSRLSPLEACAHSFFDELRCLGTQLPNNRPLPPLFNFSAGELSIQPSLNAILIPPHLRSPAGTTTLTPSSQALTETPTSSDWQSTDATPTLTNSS
Sequence of Glycogen synthase kinase-3 beta (P49841 whole entry): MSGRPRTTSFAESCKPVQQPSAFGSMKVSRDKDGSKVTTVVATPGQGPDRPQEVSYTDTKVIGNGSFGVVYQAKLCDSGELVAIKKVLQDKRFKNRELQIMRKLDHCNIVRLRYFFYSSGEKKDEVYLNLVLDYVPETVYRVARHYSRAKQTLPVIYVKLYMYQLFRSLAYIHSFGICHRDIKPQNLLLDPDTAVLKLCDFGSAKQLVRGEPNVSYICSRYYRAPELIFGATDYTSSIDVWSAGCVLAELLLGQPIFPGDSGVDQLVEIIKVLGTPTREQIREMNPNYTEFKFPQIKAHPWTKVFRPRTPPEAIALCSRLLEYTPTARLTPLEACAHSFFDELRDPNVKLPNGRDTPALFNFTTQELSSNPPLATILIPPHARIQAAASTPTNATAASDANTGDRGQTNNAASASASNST

**Q.** With `CC1(C)CC(=O)C2=C(C1)NC1=C(CN=N1)C21COC2(CN(C(=O)C(C)(C)F)C2)C1` (stereo not given) [US20250313563, Compound 947276] as the compound, how does the IC50 [1] read?
**A.** Its IC50 is less than 100 nM.

**Q.** And the IC50 [2]?
**A.** Its IC50 is less than 100 nM.

**Q.** `CC1(C)CC(=O)C2=C(C1)NC1=C(CN=N1)C21COC2(CN(C(=O)C3(F)CCCC3)C2)C1` (stereo not given) [US20250313563, Compound 947277] was tested. Which IC50 [1] did it give?
**A.** Its IC50 is less than 100 nM.

**Q.** What about the IC50 [2] of the same compound?
**A.** Its IC50 is less than 100 nM.

**Q.** `CC1(C)CC(=O)C2=C(C1)NC1=C(CN=N1)C21COC2(CN(C(=O)CC3CC(F)(F)C3)C2)C1` (stereo not given) [US20250313563, Compound 947278] was tested. Which IC50 [1] did it give?
**A.** Its IC50 is less than 100 nM.

**Q.** And the IC50 [2]?
**A.** The IC50 was less than 100 nM.

**Q.** What does the source list for `CC1(C)CC(=O)C2=C(C1)NC1=C(CN=N1)C21COC2(CN(C(=O)C3(F)CCC3)C2)C1` (stereo not given) [US20250313563, Compound 947279]?
**A.** IC50 [1]: < 100 nM; IC50 [2]: < 100 nM

**Q.** How did the IC50 [1] turn out when `CC1(C)CC(=O)C2=C(C1)NC1=C(CN=N1)C21COC2(CN(C(=O)C(F)(F)F)C2)C1` (stereo not given) [US20250313563, Compound 947280] was run?
**A.** The IC50 was less than 100 nM.

**Q.** And the IC50 [2]?
**A.** Its IC50 is less than 100 nM.

**Q.** With `Cc1ccc(CC(=O)N2CC3(C2)CC2(CO3)C3=C(N=NC3)NC3=C2C(=O)CC(C)(C)C3)cc1` (stereo not given) [US20250313563, Compound 947281] as the compound, how does the IC50 [1] read?
**A.** Its IC50 is < 100 nM and 100 to 1000 nM.

**Q.** What about the IC50 [2] of the same compound?
**A.** Its IC50 is < 100 nM and 100 to 1000 nM.

**Q.** With `CC1(C)CC(=O)C2=C(C1)NC1=C(CN=N1)C21COC2(CN(C(=O)C3CC(C)(C)C3)C2)C1` (stereo not given) [US20250313563, Compound 947282] as the compound, how does the IC50 [1] read?
**A.** The IC50 was 100 to 1000 nM.

**Q.** And the IC50 [2]?
**A.** Its IC50 is less than 100 nM.

**Q.** Which IC50 [1] does the source give for `CC1(C)CC(=O)C2=C(C1)NC1=C(CN=N1)C21COC2(CN(C(=O)c3cccc(F)c3)C2)C1` (stereo not given) [US20250313563, Compound 947283] here?
**A.** The IC50 was less than 100 nM.

**Q.** And the IC50 [2]?
**A.** Its IC50 is less than 100 nM.

**Q.** For `Cc1cccc(C(=O)N2CC3(C2)CC2(CO3)C3=C(N=NC3)NC3=C2C(=O)CC(C)(C)C3)c1C` (stereo not given) [US20250313563, Compound 947284], which IC50 [1] is on record?
**A.** The IC50 was 100 to 1000 nM.

**Q.** What about the IC50 [2] of the same compound?
**A.** Its IC50 is less than 100 nM.

**Q.** With `Cc1ccc(C)c(C(=O)N2CC3(C2)CC2(CO3)C3=C(N=NC3)NC3=C2C(=O)CC(C)(C)C3)c1` (stereo not given) [US20250313563, Compound 947285] as the compound, how does the IC50 [1] read?
**A.** The IC50 was 100 to 1000 nM.

**Q.** And the IC50 [2]?
**A.** Its IC50 is less than 100 nM.

**Q.** `Cc1ccc(C(=O)N2CC3(C2)CC2(CO3)C3=C(N=NC3)NC3=C2C(=O)CC(C)(C)C3)cc1C` (stereo not given) [US20250313563, Compound 947286] was tested. Which IC50 [1] did it give?
**A.** The IC50 was less than 100 nM.

**Q.** What about the IC50 [2] of the same compound?
**A.** Its IC50 is less than 100 nM.

**Q.** How did the IC50 [1] turn out when `Cc1ccccc1C(=O)N1CC2(C1)CC1(CO2)C2=C(N=NC2)NC2=C1C(=O)CC(C)(C)C2` (stereo not given) [US20250313563, Compound 947287] was run?
**A.** The IC50 was 100 to 1000 nM.

**Q.** And the IC50 [2]?
**A.** Its IC50 is less than 100 nM.

**Q.** With `CC1(C)CC(=O)C2=C(C1)NC1=C(CN=N1)C21COC2(CN(C(=O)C3CCC3)C2)C1` (stereo not given) [US20250313563, Compound 947288] as the compound, how does the IC50 [1] read?
**A.** The IC50 was < 100 nM and 100 to 1000 nM.

**Q.** What about the IC50 [2] of the same compound?
**A.** The IC50 was < 100 nM and 100 to 1000 nM.

**Q.** Which IC50 [1] does the source give for `CC1(C)CC(=O)C2=C(C1)NC1=C(CN=N1)C21COC2(CN(C(=O)c3ccccc3F)C2)C1` (stereo not given) [US20250313563, Compound 947289] here?
**A.** Its IC50 is less than 100 nM.

**Q.** What about the IC50 [2] of the same compound?
**A.** Its IC50 is less than 100 nM.

**Q.** How did the IC50 [1] turn out when `Cc1ccc(C(=O)N2CC3(C2)CC2(CO3)C3=C(N=NC3)NC3=C2C(=O)CC(C)(C)C3)cc1` (stereo not given) [US20250313563, Compound 947290] was run?
**A.** Its IC50 is less than 100 nM.

**Q.** And the IC50 [2]?
**A.** The IC50 was less than 100 nM.

**Q.** Which results are given for `CC1(C)CC(=O)C2=C(C1)NC1=C(CN=N1)C21COC2(CN(C(=O)C3CCCCC3)C2)C1` (stereo not given) [US20250313563, Compound 947291]?
**A.** IC50 [1]: 100 to 1000 nM; IC50 [2]: < 100 nM

**Q.** Which results are given for `CC1(C)CC(=O)C2=C(C1)NC1=C(CN=N1)C21COC2(CN(C(=O)c3ccc(F)cc3)C2)C1` (stereo not given) [US20250313563, Compound 947292]?
**A.** IC50 [1]: < 100 nM; IC50 [2]: < 100 nM

**Q.** What does the source list for `CC1(C)CC(=O)C2=C(C1)NC1=C(CN=N1)C21COC2(CN(C(=O)CC3CCCC3)C2)C1` (stereo not given) [US20250313563, Compound 947293]?
**A.** IC50 [1]: < 100 nM; IC50 [2]: < 100 nM

**Q.** Which IC50 [1] does the source give for `Cc1ccc(C(=O)N2CC3(C2)CC2(CO3)C3=C(N=NC3)NC3=C2C(=O)CC(C)(C)C3)c(C)c1` (stereo not given) [US20250313563, Compound 947294] here?
**A.** The IC50 was 100 to 1000 nM.

**Q.** What about the IC50 [2] of the same compound?
**A.** Its IC50 is less than 100 nM.

**Q.** Which results are given for `Cc1ccccc1CC(=O)N1CC2(C1)CC1(CO2)C2=C(N=NC2)NC2=C1C(=O)CC(C)(C)C2` (stereo not given) [US20250313563, Compound 947295]?
**A.** IC50 [1]: < 100 nM; IC50 [2]: < 100 nM

**Q.** How did the IC50 [1] turn out when `Cc1cc(C)cc(C(=O)N2CC3(C2)CC2(CO3)C3=C(N=NC3)NC3=C2C(=O)CC(C)(C)C3)c1` (stereo not given) [US20250313563, Compound 947296] was run?
**A.** The IC50 was less than 100 nM.

**Q.** And the IC50 [2]?
**A.** The IC50 was less than 100 nM.

**Q.** Which results are given for `CC1(C)CC(=O)C2=C(C1)NC1=C(CN=N1)C21COC2(CN(C(=O)C3CC3)C2)C1` (stereo not given) [US20250313563, Compound 947297]?
**A.** IC50 [1]: < 100 nM; IC50 [2]: < 100 nM

**Q.** With `CC1(C)CC(=O)C2=C(C1)NC1=C(CN=N1)C21COC2(CN(C(=O)CC3CC3)C2)C1` (stereo not given) [US20250313563, Compound 947298] as the compound, how does the IC50 [1] read?
**A.** The IC50 was less than 100 nM.

**Q.** What about the IC50 [2] of the same compound?
**A.** The IC50 was less than 100 nM.

**Q.** How did the IC50 [1] turn out when `CC1(C)CC(=O)C2=C(C1)NC1=C(CN=N1)C21COC2(CN(C(=O)CC3CCC3)C2)C1` (stereo not given) [US20250313563, Compound 947299] was run?
**A.** Its IC50 is less than 100 nM.

**Q.** What about the IC50 [2] of the same compound?
**A.** The IC50 was less than 100 nM.

**Q.** `CCCC(=O)N1CC2(C1)CC1(CO2)C2=C(N=NC2)NC2=C1C(=O)CC(C)(C)C2` (stereo not given) [US20250313563, Compound 947300] was tested. Which IC50 [1] did it give?
**A.** Its IC50 is less than 100 nM.

**Q.** What about the IC50 [2] of the same compound?
**A.** Its IC50 is less than 100 nM.
